Consider 2 molecules from ChEMBL document CHEMBL2311494, “Syntheses and evaluation of the antioxidant activity of novel methoxypsoralen derivatives” (Eur J Med Chem, 2013).

Data set [1] is described as follows: Cytotoxicity against human 1BR3 cells assessed as cell viability at 100 uM after 24 hrs by MTT assay. The data set is classed as cell-based. To be noted: read-out: Activity.
Data set [2] can be described thus: Cytotoxicity against human 1BR3 cells assessed as cell viability at 20 uM after 24 hrs by MTT assay. To be noted: read-out: Activity. Format: cell-based.
Data set [3] is described as follows: Cytotoxicity against human 1BR3 cells assessed as cell viability at 1 uM after 24 hrs by MTT assay. Format: cell-based. Particulars: read-out: Activity. (In general: Tetrazolium assays rely on reduction of a dye to a coloured formazan, in cell work by metabolically active cells.)
Data set [4] in a line: Antioxidant activity assessed as inhibition of AAPH-induced linoleic acid lipid peroxidation at 100 uM by spectrophotometric analysis. The data set is classed as functional.
The nature of data set [5]: Inhibition of soybean LOX using sodium linoleate as substrate by spectrophotometric analysis. Further details: species or system Glycine max. To be noted: read-out: IC50.
The test system of data set [6] is Radical scavenging activity. In words: Antioxidant activity assessed as DPPH radical scavenging activity at 100 uM after 20 mins by spectrophotometric analysis. The data set is classed as functional. (In general: DPPH is a stable violet radical that fades when it is reduced.)
The nature of data set [7]: Cytotoxicity against human 1BR3 cells assessed as cell viability at 10 uM after 24 hrs by MTT assay. Format: cell-based. To be noted: read-out: Activity.
In data set [8] the test system is Radical scavenging activity. Description: Antioxidant activity assessed as DPPH radical scavenging activity at 100 uM after 60 mins by spectrophotometric analysis. The data set is classed as functional.
Data set [9] concerns Rattus norvegicus. In words: Toxicity against Fischer-344 rat up to 0.1 mmol/kg, ip. Format: organism-based. To be noted: in vivo.
For data set [10], the system named is Rattus norvegicus. In words: Antiinflammatory activity in Fischer-344 rat assessed as inhibition of carrageenan-induced paw edema at 0.01 mmol/kg, ip after 3.5 hrs relative to control. Format: functional. Particulars: Fischer-344, ip.
A short description of data set [11]: Cytotoxicity against human 1BR3 cells assessed as cell viability at 50 uM after 24 hrs by MTT assay. Format: cell-based. To be noted: read-out: Activity.

One may read the inhibition as the change of the read-out against control, counted positive when it falls. By IC50 is commonly meant the concentration needed to halve the response being measured. As usually defined, the inhibition in vivo is the relative decrease from the control value, in per cent. Consider `CCCCOC(=O)/C=C/c1c2ccoc2c(OC)c2oc(=O)ccc12`, for which the viability at 24 h, 100 µM in [1] turned out to be 90.3%. For the same molecule, the viability at 24 h, 20 µM in data set [2] came out at 99.6%. In data set [3], the viability at 24 h, 1 µM amounted to 96.7%. In addition, the inhibition in data set [4] was determined as 79%. The IC50 in data set [5] was determined as 6 µM. In addition, the Activity in data set [6] was 5%; in data set [8], 7%; in data set [9], “Non-toxic”. Further, in data set [7], the viability at 24 h, 10 µM was found to be 99.3%. The inhibition in vivo at 10 µmol/kg in [10] was 57%. Further, in data set [11], the viability at 24 h, 50 µM worked out at 98.9%.

Consider `COc1c2occc2c(-c2ccc(/C=C/C(=O)OC(C)(C)C)cc2)c2ccc(=O)oc12`, for which the viability at 24 h, 100 µM in data set [1] was found to be 46.3%. Further, the viability at 24 h, 20 µM in data set [2] came out at 67.9%. For the same molecule, in [3], the viability at 24 h, 1 µM came out at 98.8%. Also, the inhibition in data set [4] was determined as 72%. The half-inhibitory concentration (IC50) in data set [5] came to 7.5 µM. The Activity in data set [6] was 15%; in data set [8], 18%; in [9], “Non-toxic”. The viability at 24 h, 10 µM in [7] is 74.1%. Moreover, the inhibition in vivo at 10 µmol/kg in data set [10] is 26.2%. The viability at 24 h, 50 µM in [11] was determined as 66.3%.
